In patent US5332726A, “Antithrombotic peptides and pseudopeptides” (Rhone-Poulenc Rorer Pharmaceuticals Inc., priority 1992, dated 1994):
Non-standard residues stand in square brackets, D forms with d. Residues, ends and D or L forms follow the SMILES beside them. Ava = NCCCCC(=O)O

Experiments:
[1] = biological target: thrombin-stimulated platelets (Homo sapiens, UniProt P05106+P08514); assay: Fibrinogen-Binding Assay (125I-fibrinogen binding to platelets); conditions: 125I-fibrinogen 0.176 μmol/liter, thrombin-stimulated platelets; read-out: Inhibition of 125I-Fibrinogen Binding to Platelets IC50
thrombin-stimulated platelets, sequence (P08514 32-1039): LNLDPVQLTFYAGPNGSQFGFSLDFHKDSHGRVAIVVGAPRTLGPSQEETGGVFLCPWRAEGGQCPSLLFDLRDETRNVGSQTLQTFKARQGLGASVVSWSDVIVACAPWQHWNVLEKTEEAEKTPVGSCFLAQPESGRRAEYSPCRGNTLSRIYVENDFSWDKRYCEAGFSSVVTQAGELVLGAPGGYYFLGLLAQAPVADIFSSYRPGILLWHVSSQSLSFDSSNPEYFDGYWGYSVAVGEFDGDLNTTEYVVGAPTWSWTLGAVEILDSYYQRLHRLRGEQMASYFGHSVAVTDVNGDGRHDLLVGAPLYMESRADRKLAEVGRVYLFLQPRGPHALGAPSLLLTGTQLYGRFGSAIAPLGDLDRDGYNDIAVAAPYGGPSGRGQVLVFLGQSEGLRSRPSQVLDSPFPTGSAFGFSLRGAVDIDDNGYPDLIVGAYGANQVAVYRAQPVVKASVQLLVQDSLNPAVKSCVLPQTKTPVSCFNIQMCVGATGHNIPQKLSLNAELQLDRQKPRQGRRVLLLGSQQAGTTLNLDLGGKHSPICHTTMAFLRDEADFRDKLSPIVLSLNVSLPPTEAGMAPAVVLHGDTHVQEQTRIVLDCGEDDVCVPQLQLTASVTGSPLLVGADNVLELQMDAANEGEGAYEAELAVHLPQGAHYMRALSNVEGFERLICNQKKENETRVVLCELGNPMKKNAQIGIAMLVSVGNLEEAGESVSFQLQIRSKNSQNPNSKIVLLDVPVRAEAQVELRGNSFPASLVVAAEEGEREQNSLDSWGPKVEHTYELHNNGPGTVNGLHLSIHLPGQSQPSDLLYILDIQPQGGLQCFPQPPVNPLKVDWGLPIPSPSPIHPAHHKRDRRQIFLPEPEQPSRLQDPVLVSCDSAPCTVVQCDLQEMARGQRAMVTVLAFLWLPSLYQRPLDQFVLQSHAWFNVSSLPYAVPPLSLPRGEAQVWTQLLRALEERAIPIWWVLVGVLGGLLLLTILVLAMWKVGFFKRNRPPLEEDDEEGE
thrombin-stimulated platelets, sequence (P05106 27-788): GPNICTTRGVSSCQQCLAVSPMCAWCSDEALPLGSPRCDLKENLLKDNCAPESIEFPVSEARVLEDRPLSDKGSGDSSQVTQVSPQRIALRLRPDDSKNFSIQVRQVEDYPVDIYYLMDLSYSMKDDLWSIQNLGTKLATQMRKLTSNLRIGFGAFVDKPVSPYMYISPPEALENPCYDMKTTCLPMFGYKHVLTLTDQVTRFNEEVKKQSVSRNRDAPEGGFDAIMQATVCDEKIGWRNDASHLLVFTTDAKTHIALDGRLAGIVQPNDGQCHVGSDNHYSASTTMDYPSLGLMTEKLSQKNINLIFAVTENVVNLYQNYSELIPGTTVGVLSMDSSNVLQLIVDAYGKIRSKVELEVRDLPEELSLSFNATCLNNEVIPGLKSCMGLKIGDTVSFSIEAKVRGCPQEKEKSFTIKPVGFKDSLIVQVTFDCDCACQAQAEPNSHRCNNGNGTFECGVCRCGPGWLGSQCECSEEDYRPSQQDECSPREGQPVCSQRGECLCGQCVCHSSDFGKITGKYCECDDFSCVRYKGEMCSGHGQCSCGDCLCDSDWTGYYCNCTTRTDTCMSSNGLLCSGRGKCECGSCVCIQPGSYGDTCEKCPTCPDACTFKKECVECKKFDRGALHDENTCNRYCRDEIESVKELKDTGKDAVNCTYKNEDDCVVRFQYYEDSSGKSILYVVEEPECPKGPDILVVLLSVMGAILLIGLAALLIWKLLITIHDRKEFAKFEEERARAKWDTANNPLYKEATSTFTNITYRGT
Experimental: Platelets are washed free of plasma constituents by the albumin density-gradient technique of Walsh, P. N., et al., Br. J. Haematol. […] After these additions, the final platelet count in the mixture is 1×10^11 /liter. After incubation for an additional 30 minutes at 22°-25° C., bound and free ligand are separated by centrifuging 50 μl of the mixture through 300 μl of 20% sucrose at 12,000×g for 4 minutes. The platelet pellet is then separated from the rest of the mixture to determine platelet-bound radioactivity. Nonspecific binding is measured in mixtures containing an excess of unlabeled ligand. […] The IC50 is derived by plotting residual fibrinogen binding against the logarithm of the sample compound's concentration.

[2] = biological target: fixed activated platelets (Homo sapiens, UniProt P05106+P08514); assay: Platelet Aggregation Assay (fibrinogen-mediated aggregation of fixed-activated platelets); assay type: cell-based; conditions: for IC50: fixed activated platelets, human fibrinogen 250 μg/ml, read-out: Inhibition of Fibrinogen Mediated Platelet Aggregation IC50; for inhibition at 25 µM: read-out: Inhibition of Fibrinogen Mediated Platelet Aggregation % inhibition at 25 μM; for inhibition at 100 µM: read-out: Inhibition of Fibrinogen Mediated Platelet Aggregation % inhibition at 100 μM
fixed activated platelets, sequence (P08514 32-1039): as the sequence (P08514 32-1039) above
fixed activated platelets, sequence (P05106 27-788): as the sequence (P05106 27-788) above
Experimental: PLATELET AGGREGATION ASSAY
Preparation of Fixed-Activated Platelets
To the activated platelets is added paraformaldehyde to a final concentration of 0.50% and this incubated at room temperature for 30 minutes. The fixed activated platelets are then collected by centrifugation at 650×g for 15 minutes.
Platelet Aggregation Assay
The fixed activated platelets are incubated with a selected dose of the compound to be tested for platelet aggregation inhibition for one minute and aggregation initiated by addition of human fibrinogen to a final concentration of 250 μg/ml. A platelet aggregation profiler Model PAP-4 is used to record the platelet aggregation.

Structure (SMILES) | IC50 [1] | IC50 [2] | inhibition at 25 µM [2] | inhibition at 100 µM [2]
N=C(N)NCCCCCCCCC(=O)N[C@@H](CC(=O)O)C(=O)NCCC(=O)N[C@@H](CCCNC(=N)N)C(=O)O [9-Guanidinononanoyl-L-aspartyl-β-alanyl-L-arginine] | 640 nM | 1500 nM | 93% | 
N=C(N)NCCC[C@H](N)C(=O)NCC(=O)N[C@@H](CC(=O)O)C(=O)OCc1ccccc1 [L-arginylglycyl-L-aspartic acid α-benzyl ester] | 25000 nM | 14000 nM |  | 96%
CCN(CC(=O)N[C@@H](CC(=O)O)C(=O)NC(CC)(CC)C(=O)O)C(=O)CCCCCNC(=N)N [6-Guanidinohexanoyl-N-ethyl-glycyl-L-aspartyl-2,2-diethylglycine] | 5000 nM | 11400 nM | 73% | 
CC(C)C[C@@H](CCC(=O)O)NC(=O)[C@H](CC(=O)O)NC(=O)CCCCCCCCNC(=N)N [N-(9-guanidinononanoyl-L-aspartyl)-(R)-4-amino-4-isobutylbutyric acid] | 54000 nM | > 25000 nM | 13% | 
CC(C)[C@H](NC(=O)CNC(=O)CNC(=O)[C@@H](N)CCCNC(=N)N)C(=O)O [L-arginyl glycyl glycyl-L-valine] (H-RGGV-OH) | > 200000 nM | > 100000 nM |  | 10%
CC(C)[C@H](NC(=O)[C@H](CC(=O)O)NC(=O)CNC(=O)CCCCCCNC(=N)N)C(=O)O [7-Guanidinoheptanoyl-glycyl-L-aspartyl-L-valine] | 6400 nM | 21000 nM | 56% | 
CC[C@@H](C)[C@@H](NC(=O)[C@H](CC(=O)O)NC(=O)CCCCCCCCNC(=N)N)C(=O)N[C@@H](CCCNC(=N)N)C(=O)O [9-Guanidinononanoyl-L-aspartyl-D-isoleucyl-L-arginine] | 10200 nM | 13100 nM | 75% | 
CC(C)[C@H](NC(=O)[C@H](CC(=O)O)NC(=O)CCCCCCCNC(=N)N)C(=O)O [8-Guanidinooctanoyl-L-aspartyl-L-valine] | 2800 nM | 2700 nM | 89% | 
CC(C)[C@H](NC(=O)[C@H](CC(=O)O)NC(=O)CNC(=O)CCCCN)C(=O)O [N-(5-Aminopentanoyl) glycyl-L-aspartyl-L-valine] (H-[Ava]GDV-OH) | 68500 nM | > 64000 nM |  | 67%
CCN(CC(=O)N[C@@H](CC(=O)O)C(=O)N[C@H](C(=O)O)C(C)C)C(=O)CCCCCNC(=N)N [6-Guanidinohexanoyl-N-ethylglycine-L-aspartyl-L-valine] | 120 nM | 380 nM | 96% | 
CC(C)[C@H](NC(=O)[C@H](CC(=O)O)NC(=O)CCCCCCCCCn1ccnc1)C(=O)O [10-(Imidazol-1-yl)decanoyl-L-aspartyl-L-valine] | 20000 nM | > 25000 nM | 45% | 
CC(C)[C@H](NC(=O)[C@H](CC(=O)O)NC(=O)CN(C(=O)CCCCCNC(=N)N)C1CCCC1)C(=O)O [6-Guanidinohexanoyl-N-cyclopentylglycine-L-aspartyl-L-valine] | 880 nM | 5700 nM | 76% | 
N=C(N)NCCCCCC=CC(=O)N[C@@H](CC(=O)O)C(=O)N[C@@H](CCCNC(=N)N)C(=O)O [8-Guanidinooct-2-enoyl-L-aspartyl-L-arginine] | 580 nM | 630 nM | 90% | 
CC(C)[C@H](NC(=O)[C@H](CC(=O)O)NC(=O)CCCCCCCCn1ccnc1)C(=O)O [9-(Imidazol-1-yl)-nonanoyl-L-aspartyl-L-valine] | 500 nM | 3400 nM | 96% | 
CC(C)[C@H](NC(=O)[C@H](CC(=O)O)NC(=O)CCCCCCCn1ccnc1)C(=O)O [8-(Imidazol-1-yl)-octanoyl-L-aspartyl-L-valine] | 860 nM | 11600 nM | 78% | 
CC(C)[C@H](NC(=O)[C@H](CC(=O)O)NC(=O)CNC(=O)CCCNC(=N)N)C(=O)O [4-Guanidinobutanoyl-glycyl-L-aspartyl-L-valine] | 10000 nM | 21900 nM | 43% | 
CC[C@H](C)[C@H](NC(=O)[C@H](CCCNC(=N)N)NC(=O)[C@H](CC(=O)O)NC(=O)CCCCCCCCNC(=N)N)C(=O)O [9-Guanidinononanoyl-L-aspartyl-arginyl-isoleucine] | 1200 nM | 2400 nM | 93% | 

Structure (SMILES) | IC50 [1] | IC50 [2] | inhibition at 25 µM [2] | inhibition at 100 µM [2]
N=C(N)NCCCCCCCCC(=O)N[C@@H](CC(=O)O)C(=O)N[C@@H](CCCNC(=N)N)C(=O)OC1CCCCC1 [9-Guanidinononanoyl-L-aspartyl-L-arginine-cyclohexylester] | 260 nM | 820 nM | 91% | 
CC[C@H](C)[C@H](NC(=O)[C@H](CC(=O)O)NC(=O)CCCCCCCCNC(=N)N)C(=O)N[C@H](CCCNC(=N)N)C(=O)O [9-Guanidinononanoyl-L-aspartyl-L-isoleucyl-D-arginine] | 15000 nM | 2000 nM | 97% | 
CC[C@H](C)[C@H](NC(=O)[C@H](CC(=O)O)NC(=O)CCCCCCCCNC(=N)N)C(=O)NCCCCNC(=N)N [9-Guanidinononanoyl-L-aspartyl-isoleucine-4-guanidinobutyl amide] | 240 nM | 5700 nM | 95% | 
N=C(N)NCCCCCCCC(=O)N[C@@H](CC(=O)O)C(=O)N[C@@H](Cc1ccccc1)C(=O)O [8-Guanidinooctanoyl-L-aspartyl-L-phenyl-alanine] | 200 nM | 690 nM | 96% | 
N=C(N)NCCCCCCCCC(=O)N[C@@H](CC(=O)O)C(=O)NCCCCNC(=N)N [9-Guanidinononanoyl-L-aspartyl-(des-carboxy)-L-arginine] | 520 nM | 4400 nM | 84% | 
CCN(CC(=O)N[C@@H](CC(=O)O)C(=O)N[C@@H](Cc1c[nH]c2ccccc12)C(=O)O)C(=O)CCCCCNC(=N)N [6-Guanidinohexanoyl-N-(ethyl)glycyl-L-aspartyl-L-tryptophan] | 130 nM | 1300 nM | 91% | 
CC(C)CNC(=O)[C@H](CCCNC(=N)N)NC(=O)[C@H](CC(=O)O)NC(=O)CCCCCCCCNC(=N)N [9-Guanidinononanoyl-L-aspartyl-L-arginine isobutyl amide] | 3000 nM | 2200 nM | 89% | 
CCc1nccn1CCCCCC(=O)N(C)CC(=O)N[C@@H](CC(=O)O)C(=O)N[C@H](C(=O)O)C(C)C [6-(2-Ethylimidazol-1-yl)hexanoyl-sarcosyl-L-aspartyl-L-valine] | 313 nM | 4900 nM | 89% | 
CC(C)[C@H](NC(=O)[C@H](CC(=O)O)NC(=O)CN(C)C(=O)CCCCn1ccnc1)C(=O)O [5-(Imidazol-1-yl)-pentanoyl-sarcosyl-L-aspartyl-L-valine] | 150 nM | 1500 nM | 95% | 
CC(C)[C@H](NC(=O)[C@H](CC(=O)O)NC(=O)CN(C)C(=O)CCCCNC(=N)N)C(=O)O [5-Guanidinovaleroyl-sarcosyl-L-aspartyl-L-valine] | 1000 nM | 520 nM | 94% | 
CCN(CC(=O)N[C@@H](CC(=O)O)C(=O)N[C@H](C(=O)O)C(C)C)C(=O)CCCCNC(=N)N [5-Guanidinopentanoyl-N-ethylglycyl-L-aspartyl-L-valine] | 40 nM | 630 nM | 91% | 
COC(=O)[C@](CCCNC(=N)N)(Cc1ccccc1)NC(=O)[C@H](CC(=O)O)NC(=O)CCCCCCCCNC(=N)N [9-Guanidinononanoyl-L-aspartyl-(S)-α-benzyl arginine methyl ester] | 20000 nM | 13300 nM | 69% | 
CC(C)[C@H](NC(=O)[C@H](CC(=O)O)NC(=O)CCCCCCCCCNC(=N)N)C(=O)O [10-Guanidinodecanoyl-L-aspartyl-L-valine] | 2500 nM | 10300 nM | 77% | 
CC(C)[C@H](NC(=O)[C@H](CC(=O)O)NC(=O)C=CCCCCCCCNC(=N)N)C(=O)O [10-Guanidinodec-2-enoyl-L-aspartyl-L-valine] | 12000 nM | 8800 nM | 77% | 
CCCC(C)CN(CC(=O)N[C@@H](CC(=O)O)C(=O)N[C@H](C(=O)O)C(C)C)C(=O)CCCCCNC(=N)N (stereo partly drawn) [6-Guanidinohexanoyl-N-(2-methylpentyl)glycine-L-aspartic acid-L-valine] | > 200000 nM | 10500 nM | 86% | 
CCN(CC(=O)N[C@@H](CC(=O)O)C(=O)N[C@@H](CC(C)C)C(=O)O)C(=O)CCCCCNC(=N)N [6-guanidinohexanoyl-N-ethyl-glycyl-L-aspartyl-L-leucine] | 5400 nM | 560 nM | 95.5% | 
